# Laboratory results as given in patent publication US20080145858A1, “DETECTION AND IDENTIFICATION OF TOXICANTS BY MEASUREMENT OF GENE […]” (priority 2003, published 2008).
# Marks after values point to notes of the source that are not given here.
# Test system: Xenopus laevis cleavage stage embryos (stage 8)
# Assay: Xenopus cDNA microarray, differential gene expression after PMA treatment during cleavage stage (Group I)
# Assay type: in vivo
# Settings: stage 8; for Normalized by Landmarks (1.59) / Normalized by all Data Points (1.28) / Ratio of Medians (Cy5/Cy3) First Spot / Ratio of Medians (Cy5/Cy3) Mean / Ratio of Medians (Cy5/Cy3) Second Spot / (CY3/CY5) by Landmarks (1.6) / (CY3/CY5) by all Data Points (1.3) / Normalization by Landmarks (1.6) / Normalization by all Data Points (1.3): PMA 100 ng/ml
# Excerpt: Specifically, the method and screen of the present invention function as follows. EST clones produced from Xenopus laevis unfertilized eggs were used in the present study with ˜1,200 EST clones from a 18,500 EST clone set selected for production of a Xenopus cDNA microarray. The Xenopus microarray was used to measure the effect of chemical treatment on Xenopus embryo gene regulation. The chemical treatment was a phorbol ester, PMA. Xenopus eggs were obtained from females induced for ovulation and fertilized in vitro. Control Xenopus laevis embryos were allowed to develop to stage 8 blastula or stage 15 neurula. Treated embryos were exposed to PMA during cleavage stage or during neurulation with end points of blastula (stage 8) or neurula (stage 15). Specifically, PMA 100 ng/ml was added to the incubation media during cleavage stages for evaluation in stage 8 embryo or PMA was added during neural induction for evaluation in stage 15 embryos. RNA extracted from the embryos was used to generate fluorescent cDNA probes for Xenopus microarray analyses to measure differential gene expression with and without the phorbol ester treatment. Analysis was performed using paired RNA samples to compare PMA-treated and untreated embryos: Group I measured the effects of PMA-treatment during the cleavage stage in stage 8 embryos and Group II measured the effects of PMA-treatment during neurulation in stage 15 embryos. Group III measured the change in gene expression between stage 8 and stage 15 embryos.
# cDNA fragments were obtained by PCR replication of Xenopus laevis unfertilized egg cDNA inserts, purified, quantitated and loaded onto glass chips by robotics. In addition to the selected ˜1,200 genes, 64 lambda Q gene, an internal control cDNA (Genomic Solutions, Inc., Ann Arbor, Mich.) was loaded on the chip. The insert DNA from ˜1,200 clones were PCR amplified using forward and reverse primers (GF.200 primers, Research Genetics, Huntsville, Ala.). A second PCR was carried out using 1 μl of the primary PCR (20 μl) for template. Excess dNTPs, polymerase and other PCR artifacts were removed from the secondary PCR reactions using Millipore Multiscreen plates (Millipore Corporation, Bedford, Mass.) using the standard protocol. The purity of the PCR products was assessed by electrophoresis and documented using an Alphalmager 1000 Digital Imaging System (Alpha Innotech Corporation, San Leandro, Calif.). The DNA obtained by PCR was quantitated using PicoGreen (Molecular Probes, Eugene, Oreg.). The DNA was denatured and arrayed onto amino-silane coated microscope slides (CMT-GAPS coated slides, Corning, Corning, N.Y.) using a Flexys robotic workstation (Genomic Solutions Inc.). The ˜1,200 PCR products were arrayed in duplicate on each slide and cross-linked. Each gene chip contained duplicate cDNA samples.
# Total RNA was prepared from embryos treated in three separate dishes per treatment group that were pooled. Total RNA was isolated from the frog embryos (1,200 embryos for each probe production) using TRIzol extraction (Gibco BRL, Grand Island, N.Y.) and Qiagen RNeasy kits (Qiagen, Valencia, Calif.). The ethanol precipitated RNA was resuspended in RNase-free water, quantitated with RiboGreen (Molecular Probes, Eugene, Oreg.). Total RNA was further purified using oligoTex mRNA maxi kit (Qiagen Co.) with the bound mRNA eluted with minimum volume of elution buffer and precipitated with ethanol. The recovery rate of mRNA by the ethanol precipitation method was ˜70%. Cy3- or Cy5-tagged probes were produced from an mRNA mixture (20 μl) of Xenopus mRNA (5 μg) and lambda Q gene mRNA (3.5 ng) reverse-transcribed with oligo(dT)18-22 primer and dNTPs and the reverse-transcribed cDNA was cross-linked with Cy3 or Cy5 as described in Clontech Atlas™ Glass Fluorescent Labeling kit manual (www.clontech.com). After hydrolysis of the RNA and purification of the probe (Centricon 50, Millipore, Bedford, Mass.), the cDNA in TE buffer was quantitated by absorbance at 260 nm. […]
compound,measurement,setting,value
"CCCCCCCCCCCCCC(=O)O[C@@H]1[C@@H](C)[C@@]2(O)[C@@H](C=C(CO)C[C@]3(O)C(=O)C(C)=C[C@@H]23)[C@@H]2C(C)(C)[C@]12OC(C)=O [PMA, phorbol 12-myristate 12-acetate]","alpha-tubulin expression ratio, mean of 4 data points using NF from landmarks",2 alpha-tubulin genes (house keeping),0.85
same,Normalized by Landmarks (1.59),PBX0134C10 mRNA,7.95
same,Normalized by all Data Points (1.28),PBX0134C10 mRNA,6.40
same,Ratio of Medians (Cy5/Cy3) First Spot,PBX0134C10 mRNA,3.33
same,Ratio of Medians (Cy5/Cy3) Mean,PBX0134C10 mRNA,5.00 ± 1.67^a
same,Ratio of Medians (Cy5/Cy3) Second Spot,PBX0134C10 mRNA,6.67
same,Normalized by Landmarks (1.59),PBX0134E04 mRNA,4.58
same,Normalized by all Data Points (1.28),PBX0134E04 mRNA,3.69
same,Ratio of Medians (Cy5/Cy3) First Spot,PBX0134E04 mRNA,2.75
same,Ratio of Medians (Cy5/Cy3) Mean,PBX0134E04 mRNA,2.88 ± 0.12
same,Ratio of Medians (Cy5/Cy3) Second Spot,PBX0134E04 mRNA,3.00
same,Normalized by Landmarks (1.59),PBX0134G08 mRNA,7.62
same,Normalized by all Data Points (1.28),PBX0134G08 mRNA,6.13
same,Ratio of Medians (Cy5/Cy3) First Spot,PBX0134G08 mRNA,4.25
same,Ratio of Medians (Cy5/Cy3) Mean,PBX0134G08 mRNA,4.79 ± 0.54
same,Ratio of Medians (Cy5/Cy3) Second Spot,PBX0134G08 mRNA,5.33
same,Normalized by Landmarks (1.59),PBX0134G10 mRNA,5.20
same,Normalized by all Data Points (1.28),PBX0134G10 mRNA,4.19
same,Ratio of Medians (Cy5/Cy3) First Spot,PBX0134G10 mRNA,2.71
same,Ratio of Medians (Cy5/Cy3) Mean,PBX0134G10 mRNA,3.27 ± 0.56
same,Ratio of Medians (Cy5/Cy3) Second Spot,PBX0134G10 mRNA,3.83
same,Normalized by Landmarks (1.59),PBX0134G11 mRNA,3.90
same,Normalized by all Data Points (1.28),PBX0134G11 mRNA,3.14
same,Ratio of Medians (Cy5/Cy3) First Spot,PBX0134G11 mRNA,2.50
same,Ratio of Medians (Cy5/Cy3) Mean,PBX0134G11 mRNA,2.45 ± 0.05
same,Ratio of Medians (Cy5/Cy3) Second Spot,PBX0134G11 mRNA,2.40
same,Normalized by Landmarks (1.59),PBX0134H03 mRNA,5.44
same,Normalized by all Data Points (1.28),PBX0134H03 mRNA,4.38
same,Ratio of Medians (Cy5/Cy3) First Spot,PBX0134H03 mRNA,3.67
same,Ratio of Medians (Cy5/Cy3) Mean,PBX0134H03 mRNA,3.42 ± 0.25
same,Ratio of Medians (Cy5/Cy3) Second Spot,PBX0134H03 mRNA,3.17
same,Normalized by Landmarks (1.59),PBX0135C06 mRNA,4.29
same,Normalized by all Data Points (1.28),PBX0135C06 mRNA,3.46
same,Ratio of Medians (Cy5/Cy3) First Spot,PBX0135C06 mRNA,3.00
same,Ratio of Medians (Cy5/Cy3) Mean,PBX0135C06 mRNA,2.70 ± 0.30
same,Ratio of Medians (Cy5/Cy3) Second Spot,PBX0135C06 mRNA,2.40
same,(CY3/CY5) by Landmarks (1.6),PBX0136B04 mRNA,2.76
same,(CY3/CY5) by all Data Points (1.3),PBX0136B04 mRNA,4.41
same,Normalization by Landmarks (1.6),PBX0136B04 mRNA,0.36
same,Normalization by all Data Points (1.3),PBX0136B04 mRNA,0.23
same,Ratio of Medians (Cy5/Cy3) First Spot,PBX0136B04 mRNA,0.11
same,Ratio of Medians (Cy5/Cy3) Mean,PBX0136B04 mRNA,0.17 ± 0.06
same,Ratio of Medians (Cy5/Cy3) Second Spot,PBX0136B04 mRNA,0.24
same,Normalized by Landmarks (1.59),PBX0136C09 mRNA,5.55
same,Normalized by all Data Points (1.28),PBX0136C09 mRNA,4.47
same,Ratio of Medians (Cy5/Cy3) First Spot,PBX0136C09 mRNA,3.80
same,Ratio of Medians (Cy5/Cy3) Mean,PBX0136C09 mRNA,3.49 ± 0.31
same,Ratio of Medians (Cy5/Cy3) Second Spot,PBX0136C09 mRNA,3.17
same,Normalized by Landmarks (1.59),PBX0136F03 mRNA,5.26
same,Normalized by all Data Points (1.28),PBX0136F03 mRNA,4.24
same,Ratio of Medians (Cy5/Cy3) First Spot,PBX0136F03 mRNA,3.50
same,Ratio of Medians (Cy5/Cy3) Mean,PBX0136F03 mRNA,3.31 ± 0.20
same,Ratio of Medians (Cy5/Cy3) Second Spot,PBX0136F03 mRNA,3.11
same,Normalized by Landmarks (1.59),PBX0137A11 mRNA,5.31
same,Normalized by all Data Points (1.28),PBX0137A11 mRNA,4.28
same,Ratio of Medians (Cy5/Cy3) First Spot,PBX0137A11 mRNA,2.17
same,Ratio of Medians (Cy5/Cy3) Mean,PBX0137A11 mRNA,3.34 ± 1.66
same,Ratio of Medians (Cy5/Cy3) Second Spot,PBX0137A11 mRNA,4.50
same,(CY3/CY5) by Landmarks (1.6),PBX0137E10 mRNA,1.85
same,(CY3/CY5) by all Data Points (1.3),PBX0137E10 mRNA,2.96
same,Normalization by Landmarks (1.6),PBX0137E10 mRNA,0.54
same,Normalization by all Data Points (1.3),PBX0137E10 mRNA,0.34
same,Ratio of Medians (Cy5/Cy3) First Spot,PBX0137E10 mRNA,0.31
same,Ratio of Medians (Cy5/Cy3) Mean,PBX0137E10 mRNA,0.26 ± 0.05
same,Ratio of Medians (Cy5/Cy3) Second Spot,PBX0137E10 mRNA,0.21
same,Normalized by Landmarks (1.59),PBX0137G06 mRNA,3.74
same,Normalized by all Data Points (1.28),PBX0137G06 mRNA,3.01
same,Ratio of Medians (Cy5/Cy3) First Spot,PBX0137G06 mRNA,2.22
same,Ratio of Medians (Cy5/Cy3) Mean,PBX0137G06 mRNA,2.35 ± 0.13
same,Ratio of Medians (Cy5/Cy3) Second Spot,PBX0137G06 mRNA,2.47
same,Normalized by Landmarks (1.59),PBX0138A04 mRNA,4.75
same,Normalized by all Data Points (1.28),PBX0138A04 mRNA,3.83
same,Ratio of Medians (Cy5/Cy3) First Spot,PBX0138A04 mRNA,1.64
